# Measurements from patent publication US6372194B1, “MRI contrast media recognizing minor environmental changes” (Nihon Schering K.K., priority 1997, dated 2002).
# Test: Proton relaxing times (T1, T2) and proton relaxivity, Minispec 20 MHz, 40° C.
# Type: physicochemical
# Conditions: for T1 relaxing time / T2 relaxing time: 20 MHz, 40° C.
# Protocol: The proton relativity of poly[Gd(DTPA-PDA)2]35 and poly[Gd(DTPA-PDA)5]14 obtained in Example 1 was compared with that of conventional MRI contrast medium. As the conventional MRI contrast medium, used was Gd-DTPA (Magnevist). The proton relaxivity was determined by using Minispec (NMS 120/125/10VTS, manufactured by Japan Bruker) at frequency at 20 MHz and temperature at 40° C. T1 was determined using an IR (inversion recovery) method under the conditions of initial τ of 2 ms, τ magnification of 1.7 and determination points of 20. T2 was determined using a CPMG (Carr-Purcell-Meiboon-Gill) method under the conditions of τ of 1 ms and determination points of 50.
# Respective proton relaxing times (T1 and T2) are shown in Table 1, and the proton relaxivity (R1 and R2) calculated from said proton relaxing time are shown in Table 2.
smiles,measurement,setting,value
O=C([O-])CN(CCN(CC(=O)[O-])CC(=O)O)CCN(CC(=O)[O-])CC(=O)O.[Gd+3] [Gd-DTPA],T1 relaxing time,Gd concentration 0.1 mM,1503 ms
same,T2 relaxing time,Gd concentration 0.1 mM,1339 ms
same,T1 relaxing time,Gd concentration 1 mM,247 ms
same,T2 relaxing time,Gd concentration 1 mM,220 ms
same,T1 relaxing time,Gd concentration 5 mM,53 ms
same,T2 relaxing time,Gd concentration 5 mM,47 ms
same,T1 relaxing time,Gd concentration 10 mM,26 ms
same,T2 relaxing time,Gd concentration 10 mM,24 ms
same,proton relaxivity R1,calculated from proton relaxing time,3.81 1 mmol^−1 sec^−1
